“Also recorded” adds a separate entry of the source.
How the values were obtained:
PDAC patients = settings: cited from earlier work
[1] = Same clinical trial: safety, serious adverse events (SAEs); type: in vivo, human; settings: for number of serious adverse events (SAEs) reported in the arm: 93 patients per arm; for patients with serious adverse events (SAEs): of 93 patients in the arm
Procedure: (§1) One hundred and ninety two (192) newly diagnosed patients with locally advanced or metastatic pancreatic cancer were randomized and recruited into 2 arms, on the treatment arm patients were administered administered i.v infusion of nimotuzumab at 400 mg dose once a week until progressive disease or unacceptable toxicity and gemcitabine 1000 mg/m^2 once weekly for 3 weeks, followed by a 1-week rest (d1, 8, 15; q28) and on the control arm patients were administered i.v infusion of placebo once a week until progressive disease or unacceptable toxicity and gemcitabine 1000 mg/m^2 once weekly for 3 weeks, followed by a 1-week rest (d1, 8, 15; q28).
(§2) As a primary endpoint, overall survival (OS) in the intention-to-treat (ITT) population was evaluated. The OS was assessed by the date of the last visit, death or loss of the follow up. The OS was initially calculated for all population and then a subset analysis was run taking into consideration the KRAS status of each of the patients on each treatment arm. Secondary endpoints included progression free survival (PFS), assessed by the day of the progression or the death, safety, assessed by the incidence of adverse events (AE) or serious adverse events (SAE), objective response rate (ORR), assessed by the number of patients on each treatment arm with Complete Response (CR) and Partial Response (PR) to the treatment ((CR+PR)/N, No. patients in the arm)) and Quality of Life (QoL), assessed using EORTC quality of life questionnaire QLQ-C30 version 2.0 (EORTC, NL).

[2] = system: locally advanced or metastatic pancreatic cancer patients; experiment: Randomized clinical trial of gemcitabine plus nimotuzumab versus gemcitabine plus placebo: survival by KRAS status; type: in vivo, human; settings: for overall survival (OS), Kaplan-Meier, versus placebo-gemcitabine arm / progression-free-survival (PFS), Kaplan-Meier, versus placebo-gemcitabine arm: nimotuzumab 400 mg i.v. once weekly + gemcitabine 1000 mg/m^2 (d1, 8, 15; q28)
Procedure: In this clinical trial patients with previously untreated, unresectable, locally advanced or metastatic pancreatic adenocarcinoma received gemcitabine (1000 mg/m^2/30-min iv once weekly (d1, 8, 15; q28)) and nimotuzumab (400 mg 30-min iv once weekly), or placebo until disease progression or unmanageable toxicity. The primary endpoint in this study was overall survival (OS) in the intention-to-treat (ITT) population. The secondary endpoints included progression free survival (PFS), safety, objective response rate (ORR), and Quality of Life (QoL).
as §1
Tumor response was assessed using CT (Computed Tomography) or MRI (Magnetic Resonance Imaging) and statistically analyzed using RECIST (Response Evaluation Criteria in Solid Tumors), which provides guidelines for identifying complete response, partial response, stable disease, or progressive disease based on tumor size (see, e.g., Therasse et al., February 2000, “New Guidelines to Evaluate the Response to Treatment in Solid Tumors,” J. Natl. Cancer Inst. 92 (3): 205-216) and overall survival was assessed by the last patient visit, death or loss of follow up.
Out of 192 patients that were randomized into 2 arms, tumor samples were taken from 101 patients (49 from the control arm and 52 from the treatment arm).
To determine if KRAS status correlates with survival the 101 samples were tested. From the KRAS analysis of the 101 samples, 34 samples were KRAS Wild Type (20 from the control arm and 14 from the treatment arm) and 67 samples has the mutation of the KRAS (29 from the control arm and 38 from the treatment arm).
as §2
Progression-free-survival (PFS) is defined as the length of time during and after the treatment of a disease, such as cancer, that a patient lives with the disease without worsening of the symptoms and was measured from date of randomization to the occurrence of progression or death or last date of observation without progression.

[3] = patients with KRAS mutated, FIG. 3
[4] = patients with KRAS wild type, FIG. 4

C#Cc1cccc(Nc2ncnc3cc(OCCOC)c(OCCOC)cc23)c1 [Erlotinib]
PDAC patients in whom treatment has shown benefit (PDAC patients; Moore et al. J Clin Oncol. 2007): about 10%
prolongation of median survival (PDAC patients; addition to gemcitabine): 2 weeks

Nc1ccn([C@@H]2O[C@H](CO)[C@@H](O)C2(F)F)c(=O)n1 [placebo-gemcitabine, gemcitabine, reference compound]
number of serious adverse events (SAEs) reported in the arm [1]: 104 SAEs
patients with serious adverse events (SAEs) [1]: 65.6%

nimotuzumab-gemcitabine: treatment arm: nimotuzumab 400 mg i.v. once a week plus gemcitabine 1000 mg/m^2 once weekly for 3 weeks, 1-week rest
number of serious adverse events (SAEs) reported in the arm [1]: 108 SAEs
patients with serious adverse events (SAEs) [1]: 58.1%
overall survival (OS), Kaplan-Meier, versus placebo-gemcitabine arm [2, 3]: no difference
progression-free-survival (PFS), Kaplan-Meier, versus placebo-gemcitabine arm [2, 3]: no difference
overall survival (OS), Kaplan-Meier, versus placebo-gemcitabine arm [2, 4]: significant difference in favour of the treatment arm; also recorded: significant improvement
progression-free-survival (PFS), Kaplan-Meier, versus placebo-gemcitabine arm [2, 4]: significant difference in favour of the treatment arm; also recorded: significant improvement
overall survival (OS), Kaplan-Meier, versus placebo-gemcitabine arm ([2]; patients with KRAS wild type, FIG. 4, listed as nimotuzumab and gemcitabine): significantly improved
increase of median overall survival compared to control arm (placebo-gemcitabine) ([2]; subgroup of KRAS WT): 6 months

nimotuzumab: anti-EGFR humanized monoclonal antibody produced by the cell line h-R3 deposited as ECACC 951110101
SAE related to study drug: general physical health deterioration, subjects ([1]; nimotuzumab arm): 3.23%
SAE related to study drug: nausea, subjects ([1]; nimotuzumab arm): 2.15%
SAE related to study drug: thrombocytopenia, subjects ([1]; nimotuzumab arm): 2.15%
SAE related to study drug: vomiting, subjects ([1]; nimotuzumab arm): 2.15%
patients with SAEs reported to be related to the study drug ([1]; nimotuzumab arm, of 93 patients): 16.1%
number of SAEs reported to be related to the study drug ([1]; nimotuzumab arm, of the 108 SAEs): 26 SAEs

— US20250099582A1, “TREATMENT OF PATIENTS DIAGNOSED WITH PANCREATIC DUCTAL ADENOCARCINOMA USING MONOCLONAL ANTIBODIES AGAINST THE EPIDERMAL GROWTH FACTOR RECEPTOR (EGFR)” (INNOCIMAB PTE LTD, priority 2015, published 2025)
